The values that follow come from ChEMBL document CHEMBL3886249, “Serine/threonine kinase inhibitors” (2015).

Each structure is given as a SMILES string.

This experiment has as its target Mitogen-activated protein kinase 1 (Homo sapiens, UniProt P28482). In words: Enzymatic Assay: Compounds were tested in an enzymatic assay using human ERK-2 (Mitogen Activated Kinase 1), recombinantly expressed as an n-terminal 6-His fusion protein in E. coli and corresponding to aa 8-360. […] Test compounds were diluted in DMSO in 3-fold serial dilutions at 100x final concentrations.

Usually IC50 stands for the midpoint of a concentration-inhibition curve.

Chain of Mitogen-activated protein kinase 1 (P28482 whole entry, the tested form may be a part): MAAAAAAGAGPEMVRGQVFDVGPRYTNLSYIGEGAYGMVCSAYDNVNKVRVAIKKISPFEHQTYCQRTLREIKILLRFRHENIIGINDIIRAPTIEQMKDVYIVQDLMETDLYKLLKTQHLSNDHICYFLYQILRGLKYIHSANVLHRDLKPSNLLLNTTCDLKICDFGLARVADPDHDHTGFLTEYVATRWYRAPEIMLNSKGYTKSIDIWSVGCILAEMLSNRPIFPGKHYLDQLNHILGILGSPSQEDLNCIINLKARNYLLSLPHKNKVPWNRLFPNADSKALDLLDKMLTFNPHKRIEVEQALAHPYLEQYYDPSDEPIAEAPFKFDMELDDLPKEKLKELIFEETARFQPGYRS

In the case of `CC(C)Nc1ncc2c(n1)CN(C(=O)N[C@@H](c1ccc(C(F)(F)F)c(F)c1)c1cccc(=O)[nH]1)CC2`, the half-maximal inhibitory concentration (IC50) worked out at 144 nM.

Take `CC1CC(Nc2ncc3c(n2)CN(C(=O)N[C@H](CO)c2ccc(Cl)c(F)c2)CC3)CCO1` (some centres not stated): the IC50 amounted to 2.39 nM.
